Results taken from patent publication US9163032B2, “Esters of DCPLA and methods of treatment using the same” (Blanchette Rockefeller Neurosciences Institute, priority 2011, dated 2015).
“Also recorded” adds a separate entry of the source.

Experiments:
[1] = target: PKC-α (Homo sapiens, UniProt P17252); assay: PKC activation assay with purified PKC-α isozyme; format: biochemical
Experimental: (§1) For measurement of PKC activation by DCPLA-ME, activation of recombinant PKC-α, PKC-ε, and PKC-δ was evaluated. DCPLA-ME induced activation was measured in the absence of diacylglycerol (DAG) and phosphatidylserine (PS) as described earlier. See Nelson, T. J. et al., J. Biol. Chem., 2009, 284: 34514-34521, and Kanno, T. et al., J. Cell Physiol., 2009, 221: 183-188. Individual enzymes were incubated for 15 min at 37° C. in the presence of 10 μM histones, 4.89 mM CaCl2, 10 mM MgCl2, 20 mM HEPES (pH 7.4), 0.8 mM EDTA, 4 mM EGTA, 4% glycerol, 8 μg/ml aprotinin, 8 μg/ml leupeptin, 2 mM benzamidine, and 0.5 μCi of [γ-^32P]ATP. Purified PKC-α, PKC-ε and PKC-δ were preincubated with DCPLA-ME for 5 min at room temperature. [^32P]-Phosphoprotein formation was measured by adsorption onto phosphocellulose.
(§2) To measure PKC, 10 μl of cell homogenate or purified PKC isozyme was incubated for 15 min at 37° C. in the presence of 10 μM histones, 4.89 mM CaCl2, 1.2 μg/μl phosphatidyl-L-serine, 0.18 μg/μl 1,2-dioctanoyl-sn-glycerol, 10 mM MgCl2, 20 mM HEPES (pH 7.4), 0.8 mM EDTA, 4 mM EGTA, 4% glycerol, 8 μg/ml aprotinin, 8 μg/ml leupeptin, and 2 mM benzamidine. [γ32P]ATP (0.5 μCi) was added and 32P-phosphoprotein formation was measured by adsorption onto phosphocellulose as described previously. […]
PKC activity of each compound was measured in the absence of diacylglycerol and phosphatidyl-L-serine and PKC-δ and PKC-ε were measured in the absence of added EGTA and CaCl2, as described by Kanno et al., J. Lipid Res., 2006, 47: 1146-1156. […] To determine their PKC isozyme specificity, the compounds were pre-incubated with purified isoforms of PKC for five minutes and the PKC activity was measured radiometrically.
The activation and PKC isozyme specificity of DCPLA-ethyl ester was measured following the procedures in Example 1(B) and (C), except that 9 ng of the purified isozyme was used and it was pre-incubated for 5 minutes at room temperature (FIG. 3). PKC-ε activation by DCPLA-tert-butyl ester and DCPLA-retinyl ester was measured in the same manner as DCPLA-ethyl ester (FIG. 3).

[2] = tested on: Wistar rats; assay: Water maze spatial learning and memory task; format: in vivo, rat; conditions: for water maze learning performance (escape latency) vs control: 8 doses, rats
Experimental: (§3) Water maze spatial learning and memory task (2 training trials/day for 4 days) was used to evaluate effects of oral DCPLA-ME on learning and memory in rats. A visible platform test was conducted after the end of the experiments to evaluate whether the treatment might result in an altered sensorimotor activity and escape motivation.
Male adult Wistar rats (200-250 g) were housed in a temperature-controlled (20-24° C.) room for a week, allowed free access to food and water, and kept on a 12-h light/dark cycle. Rats were anesthetized with sodium pentobarbital (60 mg/kg i.p) and placed in a stereotactic apparatus (Kopf Instruments, Tujunga, Calif.). The core temperature of rats was monitored and kept constant (38.0±0.5° C.) with warming light and pad. Two stainless steel guide cannulas were placed with the tips positioned at the coordinates (anterior-posterior, 0.5 mm; lateral, 1.5 mm; horizontal, 3.2 mm), under aseptic conditions. At the end of surgery and under appropriate anesthesia, rats received (s.c.) banamine (1 mg/kg) and ketoprofen (5 mg/kg) in lactate/Ringer's solution. A 7-day recovery period was allowed before any further experimentation.
On the first day of experiments, all rats were randomly assigned to different groups and swam for 2 min in a 1.5-(diameter)×0.6-m (depth) pool (22±1° C.). On the following day, rats were trained in a two-trial per day task for four consecutive days. Each training trial lasted for up to 2 min, during which rats learned to escape from water by finding a hidden platform that was placed at a fixed location and submerged 1 cm below the water surface. The navigation of the rats was tracked by a video camera. The escape latency and the route of rats' swimming across the pool to the platform were recorded. The quadrant test (1 min) was performed after removing the platform, 24 hr after the last training trial. […]
Data were analyzed using a target quadrant ratio (dividing the target quadrant distance by the average of the non-target quadrant values during the probe test; FIG. 14D).

[3] = tested on: rat hippocampal neurons; assay: Dendritic branching in seven day old rat hippocampal neurons (confocal microscopy); format: cell-based; conditions: 100 nM, 48 hr
Experimental: The effect of DCPLA-ME on development of primary neurons was investigated. Seven day old rat hippocampal neurons were treated with DCPLA-ME (100 nM) for 48 hr. Immunofluorescence and confocal microscopy-cells were grown in four chambered slides (Nunc, USA) at low density. For immunofluorescence staining the cells were washed with PBS (pH 7.4) and fixed with 4% paraformaldehyde for 4 min. Following fixation, cells were blocked and permeabilized with 5% serum and 0.3% Triton X-100 in 1×PBS for 30 min. Cells were washed 3× with 1×PBS and incubated with primary antibodies for 1 hr at 1:100 dilution. After the incubation slides were again washed 3× in 1×PBS and were incubated with the FITC anti-rabbit IgG and Rhodamine anti-mouse IgG for 1 hr at 1:400 dilution. Cells were further washed and mounted in Pro Long Gold antifade mounting solution (Invitrogen, USA). Stained cells were viewed under the LSM 710 Meta confocal microscope (Zeiss) at 350 nm, 490 nm and 540 nm excitation and 470 nm, 525 nm and 625 nm emission for DAPI, FITC and rhodamine respectively. Six individual fields at 20× or 63× oil lens magnification were analyzed for the mean fluorescence intensity (MFI) in each channel. The colocalization correlation was generated by the ZEN software (Zeiss).

[4] = target: PKC-δ (Homo sapiens, UniProt Q05655); assay: PKC activation assay with purified PKC-δ isozyme; format: biochemical
Experimental: as §1
as §2, with “previously. See Nelson et al., J. Neurochemistry, 1995, 65: 2350-2357.” for “previously.”

[5] = tested on: Wistar rats; assay: Visible platform test (sensorimotor activity and escape motivation); format: in vivo, rat; conditions: oral DCPLA-ME 5.3 or 16.0 mg/kg
Experimental: as §3
At the end of the experiments, the rats were also tested in a visible platform test to evaluate whether the treatment might result in an altered sensorimotor activity and escape motivation.

Chain of PKC-δ (Q05655 whole entry): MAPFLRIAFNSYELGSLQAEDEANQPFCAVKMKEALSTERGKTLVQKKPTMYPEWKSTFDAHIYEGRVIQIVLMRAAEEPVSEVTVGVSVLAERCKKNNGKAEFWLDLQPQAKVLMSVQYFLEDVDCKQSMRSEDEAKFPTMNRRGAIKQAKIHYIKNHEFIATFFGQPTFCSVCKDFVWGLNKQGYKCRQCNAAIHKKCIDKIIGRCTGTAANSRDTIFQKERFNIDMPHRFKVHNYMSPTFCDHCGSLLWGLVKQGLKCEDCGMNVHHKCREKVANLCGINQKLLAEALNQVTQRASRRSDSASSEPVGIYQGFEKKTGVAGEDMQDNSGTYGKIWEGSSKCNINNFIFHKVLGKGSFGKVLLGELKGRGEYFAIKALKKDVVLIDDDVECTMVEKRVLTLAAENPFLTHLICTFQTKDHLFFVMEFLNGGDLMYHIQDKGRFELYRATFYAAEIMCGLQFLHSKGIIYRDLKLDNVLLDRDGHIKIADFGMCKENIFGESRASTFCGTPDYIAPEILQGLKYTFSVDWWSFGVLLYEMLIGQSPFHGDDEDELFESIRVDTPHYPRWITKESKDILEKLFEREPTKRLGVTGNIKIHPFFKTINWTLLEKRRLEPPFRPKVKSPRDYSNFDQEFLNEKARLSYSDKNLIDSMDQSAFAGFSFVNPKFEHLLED

`CCCCCC1CC1CC1CC1CCCCCCCC(=O)OC` (stereo not shown) [DCPLA-ME, DCPLA methyl ester] was tested, and the “effect on PKC-α” value [1] was “did not have a major effect”, the “water maze learning performance (escape latency) vs control” value ([2]; 5.3 mg/kg intragastric) was “did not reach a significant level” and the “water maze learning performance (escape latency) vs control” value ([2]; 16.0 mg/kg intragastric) was “improved learning performance”. The “memory retention, target quadrant ratio vs control” value ([2]; 16.0 mg/kg intragastric, probe test 24 hr after last trial) was “significant difference”, the Synaptophysin staining [3] was “increased” and the “effect on PKC-δ” value [4] was “did not have a major effect; also recorded: less inhibitory effect”. The “sensorimotor ability and escape motivation” value [5] was “did not affect rats' sensorimotor ability and motivation for an escape”.
